# Data from PubChem BioAssay (NCI).
#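 Briefly, cells in 96-well plates were exposed to five compound concentrations for 48 h, and endpoints were estimated by linear interpolation. Definition used: TGI = concentration required for complete inhibition of growth.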
# What was measured:
# Assay in all cases: inhibition of tumour cell growth, NCI panel, 48 h
# KM12 colon = test system: KM12 colon
# 786-0 renal = test system: 786-0 renal
# HL-60(TB) leukemia = test system: HL-60(TB) leukemia
# NCI-H226 lung = test system: NCI-H226 lung
# SR leukemia = test system: SR leukemia
# SK-OV-3 ovarian = test system: SK-OV-3 ovarian
# UACC-257 melanoma = test system: UACC-257 melanoma
# EKVX NSCLC = test system: EKVX NSCLC
# OVCAR-3 ovarian = test system: OVCAR-3 ovarian
# CCRF-CEM leukemia = test system: CCRF-CEM leukemia
# M19-MEL melanoma = test system: M19-MEL melanoma
# IGROV1 ovarian = test system: IGROV1 ovarian
# UACC-62 melanoma = test system: UACC-62 melanoma
# MOLT-4 leukemia = test system: MOLT-4 leukemia
# OVCAR-8 ovarian = test system: OVCAR-8 ovarian
# KM20L2 colon = test system: KM20L2 colon
# XF 498 CNS = test system: XF 498 CNS
# RPMI-8226 leukemia = test system: RPMI-8226 leukemia
# SK-MEL-28 melanoma = test system: SK-MEL-28 melanoma
# MALME-3M melanoma = test system: MALME-3M melanoma
# LOX IMVI melanoma = test system: LOX IMVI melanoma
# TK-10 renal = test system: TK-10 renal
# HCC-2998 colon = test system: HCC-2998 colon
# K-562 leukemia = test system: K-562 leukemia
# HOP-92 NSCLC = test system: HOP-92 NSCLC
# SF-295 CNS = test system: SF-295 CNS
# OVCAR-5 ovarian = test system: OVCAR-5 ovarian
# NCI-H23 lung = test system: NCI-H23 lung
# DLD-1 colon = test system: DLD-1 colon
# RXF-631 renal = test system: RXF-631 renal
# UO-31 renal = test system: UO-31 renal
# HOP-62 NSCLC = test system: HOP-62 NSCLC
# DMS 114 small cell lung = test system: DMS 114 small cell lung
# SF-539 CNS = test system: SF-539 CNS
# SNB-78 CNS = test system: SNB-78 CNS
# NCI-H460 lung = test system: NCI-H460 lung
# HT29 colon = test system: HT29 colon
# SNB-75 CNS = test system: SNB-75 CNS
# ACHN renal = test system: ACHN renal
# SNB-19 CNS = test system: SNB-19 CNS
# U251 CNS = test system: U251 CNS
# SW-620 colon = test system: SW-620 colon
# RXF 393 renal = test system: RXF 393 renal
# HCT-15 colon = test system: HCT-15 colon
# A549 NSCLC = test system: A549 NSCLC
# SK-MEL-2 melanoma = test system: SK-MEL-2 melanoma
# SN12C renal = test system: SN12C renal
# DMS 273 small cell lung = test system: DMS 273 small cell lung
# SK-MEL-5 melanoma = test system: SK-MEL-5 melanoma
# LXFL 529 NSCLC = test system: LXFL 529 NSCLC
# SF-268 CNS = test system: SF-268 CNS
# M14 melanoma = test system: M14 melanoma
# HCT-116 colon = test system: HCT-116 colon
# HOP-18 NSCLC = test system: HOP-18 NSCLC
# COLO 205 colon = test system: COLO 205 colon
# NCI-H522 lung = test system: NCI-H522 lung
# A498 renal = test system: A498 renal
# OVCAR-4 ovarian = test system: OVCAR-4 ovarian
# CAKI-1 renal = test system: CAKI-1 renal
compound,measurement,setting,value
COc1cc2c3c(c1OC)-c1ccccc1C(C(O)c1ccccc1)C3N(C)CC2 (stereo not given),TGI,KM12 colon,72.4 µM
same,TGI,786-0 renal,> 100 µM
same,TGI,HL-60(TB) leukemia,43.6 µM
same,TGI,NCI-H226 lung,72.8 µM
same,TGI,SR leukemia,47 µM
same,TGI,SK-OV-3 ovarian,> 100 µM
same,TGI,UACC-257 melanoma,40.6 µM
same,TGI,EKVX NSCLC,> 100 µM
same,TGI,OVCAR-3 ovarian,> 100 µM
same,TGI,CCRF-CEM leukemia,> 100 µM
same,TGI,M19-MEL melanoma,> 100 µM
same,TGI,IGROV1 ovarian,80.6 µM
same,TGI,UACC-62 melanoma,> 100 µM
same,TGI,MOLT-4 leukemia,89 µM
same,TGI,OVCAR-8 ovarian,> 100 µM
same,TGI,KM20L2 colon,48.8 µM
same,TGI,XF 498 CNS,52.3 µM
same,TGI,RPMI-8226 leukemia,82.7 µM
same,TGI,SK-MEL-28 melanoma,41.6 µM
same,TGI,MALME-3M melanoma,35 µM
same,TGI,LOX IMVI melanoma,> 100 µM
same,TGI,TK-10 renal,> 100 µM
same,TGI,HCC-2998 colon,33.7 µM
same,TGI,K-562 leukemia,76.4 µM
same,TGI,HOP-92 NSCLC,> 100 µM
same,TGI,SF-295 CNS,> 100 µM
same,TGI,OVCAR-5 ovarian,> 100 µM
same,TGI,NCI-H23 lung,> 100 µM
same,TGI,DLD-1 colon,66.1 µM
same,TGI,RXF-631 renal,65.8 µM
same,TGI,UO-31 renal,68.3 µM
same,TGI,HOP-62 NSCLC,71.6 µM
same,TGI,DMS 114 small cell lung,43.9 µM
same,TGI,SF-539 CNS,42.3 µM
same,TGI,SNB-78 CNS,> 100 µM
same,TGI,NCI-H460 lung,90 µM
same,TGI,HT29 colon,72 µM
same,TGI,SNB-75 CNS,> 100 µM
same,TGI,ACHN renal,> 100 µM
same,TGI,SNB-19 CNS,> 100 µM
same,TGI,U251 CNS,> 100 µM
same,TGI,SW-620 colon,> 100 µM
same,TGI,RXF 393 renal,29.1 µM
same,TGI,HCT-15 colon,76.9 µM
same,TGI,A549 NSCLC,> 100 µM
same,TGI,SK-MEL-2 melanoma,88.2 µM
same,TGI,SN12C renal,99.2 µM
same,TGI,DMS 273 small cell lung,64.6 µM
same,TGI,SK-MEL-5 melanoma,28 µM
same,TGI,LXFL 529 NSCLC,> 100 µM
same,TGI,SF-268 CNS,> 100 µM
same,TGI,M14 melanoma,35.6 µM
same,TGI,HCT-116 colon,39.2 µM
same,TGI,HOP-18 NSCLC,> 100 µM
same,TGI,COLO 205 colon,29.6 µM
same,TGI,NCI-H522 lung,35.9 µM
O=C(O)CCC(=O)N1C/C(=C\c2ccccc2)C(=O)/C(=C/c2ccccc2)C1,TGI,KM12 colon,3.34 µM
same,TGI,786-0 renal,5.75 µM
same,TGI,HL-60(TB) leukemia,4.59 µM
same,TGI,NCI-H226 lung,34.3 µM
same,TGI,SR leukemia,3.96 µM
same,TGI,SK-OV-3 ovarian,25.3 µM
same,TGI,UACC-257 melanoma,6.53 µM
same,TGI,A498 renal,27.3 µM
same,TGI,EKVX NSCLC,15.9 µM
same,TGI,OVCAR-3 ovarian,5.93 µM
same,TGI,CCRF-CEM leukemia,9.93 µM
same,TGI,M19-MEL melanoma,3.47 µM
same,TGI,IGROV1 ovarian,12.7 µM
same,TGI,UACC-62 melanoma,2.63 µM
same,TGI,MOLT-4 leukemia,8.22 µM
same,TGI,OVCAR-8 ovarian,8.24 µM
same,TGI,KM20L2 colon,9.89 µM
same,TGI,XF 498 CNS,6.56 µM
same,TGI,RPMI-8226 leukemia,19.9 µM
same,TGI,SK-MEL-28 melanoma,3.55 µM
same,TGI,MALME-3M melanoma,5.52 µM
same,TGI,LOX IMVI melanoma,3.36 µM
same,TGI,OVCAR-4 ovarian,4.86 µM
same,TGI,TK-10 renal,21.2 µM
same,TGI,HCC-2998 colon,4.53 µM
same,TGI,K-562 leukemia,> 24.6 µM
same,TGI,HOP-92 NSCLC,30.8 µM
same,TGI,SF-295 CNS,6.03 µM
same,TGI,OVCAR-5 ovarian,28.3 µM
same,TGI,NCI-H23 lung,12.7 µM
same,TGI,DLD-1 colon,5.06 µM
same,TGI,RXF-631 renal,11.2 µM
same,TGI,UO-31 renal,33 µM
same,TGI,HOP-62 NSCLC,31.3 µM
same,TGI,DMS 114 small cell lung,4.73 µM
same,TGI,SF-539 CNS,3.85 µM
same,TGI,SNB-78 CNS,31.4 µM
same,TGI,NCI-H460 lung,25.2 µM
same,TGI,HT29 colon,4.65 µM
same,TGI,SNB-75 CNS,19.1 µM
same,TGI,ACHN renal,4 µM
same,TGI,SNB-19 CNS,13.8 µM
same,TGI,U251 CNS,3.29 µM
same,TGI,SW-620 colon,3.77 µM
same,TGI,CAKI-1 renal,14.9 µM
same,TGI,RXF 393 renal,12.7 µM
same,TGI,HCT-15 colon,4.8 µM
same,TGI,A549 NSCLC,34.5 µM
same,TGI,SK-MEL-2 melanoma,4 µM
same,TGI,SN12C renal,3.52 µM
same,TGI,DMS 273 small cell lung,4.97 µM
same,TGI,SK-MEL-5 melanoma,6.9 µM
same,TGI,LXFL 529 NSCLC,7.17 µM
same,TGI,SF-268 CNS,5.5 µM
same,TGI,M14 melanoma,5.39 µM
same,TGI,HCT-116 colon,3.16 µM
same,TGI,HOP-18 NSCLC,16.1 µM
same,TGI,COLO 205 colon,11.3 µM
same,TGI,NCI-H522 lung,3.38 µM
